In US8912121B2, “Herbicidal compositions comprising 4-amino-3-chloro-5-fluoro-6-(4-chloro-2-fluoro-3-methoxyphenyl)pyridine-2-carboxylic acid or a derivative thereof and certain PS II inhibitors” (Dow Agrosciences LLC, priority 2012, dated 2014):

How the values were obtained:
[1] = test system: IPOHE (Ipomoea hederacea, ivyleaf morningglory); assay: Pre-emergence soil-applied mixtures, greenhouse; format: in vivo, Ipomoea hederacea (L.) Jacq.
From the text: (§1) Seeds or nutlets of the desired test plant species were planted in a soil matrix prepared by mixing a loam soil (32 percent silt, 23 percent clay, and 45 percent sand, with a pH of about 6.5 and an organic matter content of about 1.9 percent) and calcareous grit in an 80 to 20 ratio. The soil matrix was contained in plastic pots with a volume of 1 quart and a surface area of 83.6 square centimeters (cm^2).
(§2) Treatments consisted of the benzyl ester of 4-amino-3-chloro-5-fluoro-6-(4-chloro-2-fluoro-3-methoxy-phenyl)pyridine-2-carboxylic acid (compound A) formulated as an SC (suspension concentrate) and various herbicidal components alone and in combination. Forms of compound A were applied on an acid equivalent basis.
(§3) Other herbicidal components were applied on an acid equivalent or active ingredient basis and included the PSII-inhibiting herbicides, atrazine formulated as Atrazine® 90WDG, metribuzin formulated as Metribuzin 75DF, simazine formulated as Princep Caliber 90, tebuthiuron formulated as Spike 80DF, cyanazine (technical grade material), hexazinone (technical grade material), linuron (technical grade material), terbuthylazine (technical grade material), and diuron formulated as Diuron 4L.
(§4) Treatment requirements were calculated based upon the rates being tested, the concentration of active ingredient or acid equivalent in the formulation, and a 12 mL application volume at a rate of 187 L/ha.
(§5) For treatments comprised of formulated compounds, measured amounts of compounds were placed individually in 25 mL glass vials and diluted in a volume of 1.25% (v/v) Agri-Dex® crop oil concentrate (COC) to obtain 12× stock solutions. […] Application solutions were prepared by adding an appropriate amount of each stock solution (e.g., 1 mL) and diluted to the appropriate final concentrations with the addition of 10 mL of an aqueous mixture of 1.25% (v/v) COC so that the final spray solutions contained 1.25% (v/v) COC.
(§6) For treatments comprised of technical compounds, weighed amounts can be placed individually in 25 mL glass vials and dissolved in a volume of 97:3 (v/v) acetone/DMSO to obtain 12× stock solutions. […]
(§7) For treatments comprised of formulated and technical compounds, weighed amounts of the technical materials can be placed individually in 25 mL glass vials and dissolved in a volume of 97:3 (v/v) acetone/DMSO to obtain 12× stock solutions, and measured amounts of the formulated compounds can be placed individually in 25 mL glass vials and diluted in a volume of 1.5% (v/v) COC or water to obtain 12× stock solutions. […]

[2] = test system: LAMPU (Lamium purpureum, purple deadnettle); assay: Postemergence herbicidal activity of mixtures in cereal crops, greenhouse; format: in vivo, Lamium purpureum L.
Procedure: Seeds of the desired test plant species were planted in Sun Gro MetroMix® 306 planting mixture, which typically has a pH of 6.0 to 6.8 and an organic matter content of about 30 percent, in plastic pots with a surface area of 103.2 square centimeters (cm^2). When required to ensure good germination and healthy plants, a fungicide treatment and/or other chemical or physical treatment was applied. The plants were grown for 7-36 days in a greenhouse with an approximate 14 hour photoperiod which was maintained at about 18° C. during the day and about 17° C. during the night. Nutrients and water were added on a regular basis and supplemental lighting was provided with overhead metal halide 1000-Watt lamps as necessary. The plants were employed for testing when they reached the second or third true leaf stage.
Treatments consisted of the benzyl ester of 4-amino-3-chloro-5-fluoro-6-(4-chloro-2-fluoro-3-methoxy-phenyl)pyridine-2-carboxylic acid (Compound A), formulated as an SC, a second cereal herbicide alone and then both in combination.
Other herbicidal components were applied on an active ingredient basis and included PSII-inhibiting herbicides.
Measured aliquots of benzyl ester of 4-amino-3-chloro-5-fluoro-6-(4-chloro-2-fluoro-3-methoxy-phenyl)pyridine-2-carboxylic acid (Compound A) were placed in 25 milliliter (mL) glass vials and diluted in a volume of 1.25% (v/v) Agri-Dex® crop oil concentrate to obtain stock solutions. Compound requirements are based upon a 12 mL application volume at a rate of 187 liters per hectare (L/ha). Spray solutions of the second cereal herbicide and experimental compound mixtures were prepared by adding the stock solutions to the appropriate amount of dilution solution to form 12 mL spray solution with active ingredients in two- and three-way combinations. Formulated compounds were applied to the plant material with an overhead Mandel track sprayer equipped with an 8002E nozzle calibrated to deliver 187 L/ha over an application area of 0.503 square meters (m^2) at a spray height of 18 inches (46 cm) above average plant canopy. Control plants were sprayed in the same manner with the solvent blank.
The treated plants and control plants were placed in a greenhouse as described above and watered by sub-irrigation to prevent wash-off of the test compounds. After 20-22 days, the condition of the test plants as compared with that of the control plants was determined visually and scored on a scale of 0 to 100 percent where 0 corresponds to no injury and 100 corresponds to complete kill.
Colby's equation was used to determine the herbicidal effects expected from the mixtures (Colby, S. R. 1967. Calculation of the synergistic and antagonistic response of herbicide combinations. Weeds 15:20-22).
The following equation was used to calculate the expected activity of mixtures containing two active ingredients, A and B: Expected=A+B−(A×B/100)

[3] = test system: ECHCG (Echinochloa crus-galli, barnyardgrass); assay: Pre-emergence soil-applied mixtures, greenhouse; format: in vivo, Echinochloa crus-galli (L.) P. Beauv.
From the text: as §1, §2, §3, §4, §5, §6, §7

[4] = Compound A Benzyl Ester 16 g ae/ha
[5] = Compound A Benzyl Ester 32 g ae/ha

`COc1c(Cl)ccc(-c2nc(C(=O)OCc3ccccc3)c(Cl)c(N)c2F)c1F` [Compound A Benzyl Ester, benzyl ester of 4-amino-3-chloro-5-fluoro-6-(4-chloro-2-fluoro-3-methoxy-phenyl)pyridine-2-carboxylic acid] was tested, and the “Visual Weed Control (%) - 33 DAA IPOHE Obs” value [1, 4] was 0%, the “Visual Weed Control (%) - 33 DAA IPOHE Obs” value [1, 5] was 5% and the “Visual Weed Control (%)-21 DAA LAMPU Obs” value ([2]; Compound A Benzyl Ester 2.5 g ai/ha) was 80%. For the same molecule, the “Visual Weed Control (%)-21 DAA LAMPU Obs” value ([2]; Compound A Benzyl Ester 2.5 g ai/ha, Table 22) was 80%, the “Visual Weed Control (%)-21 DAA LAMPU Obs” value ([2]; Compound A Benzyl Ester 5 g ai/ha) was 86% and the “Visual Weed Control (%)-21 DAA LAMPU Obs” value ([2]; Compound A Benzyl Ester 5 g ai/ha, Table 22) was 86%. For the same molecule, the “Visual Weed Control (%)-21 DAA LAMPU Obs” value ([2]; Compound A Benzyl Ester 10 g ai/ha) was 94%, the “Visual Weed Control (%)-21 DAA LAMPU Obs” value ([2]; Compound A Benzyl Ester 10 g ai/ha, Table 22) was 94% and the “Visual Weed Control (%)-28 DAA ECHCG Obs” value [3, 4] was 0%. The “Visual Weed Control (%)-28 DAA ECHCG Obs” value [3, 5] was 0%.
